Results as given in US6608107B2, “Methods and compositions to treat conditions associated with neovascularization” (Wackvom Limited, priority 2000, dated 2003).
Where “and” joins values, the source holds several entries; their conditions need not be identical. Equal values may be shown once.

Tests used:
[1] = Organ distribution of gossypol enantiomers; conditions: in vivo
endothelial cells = assay: Endothelial Cell Assay (inhibition of endothelial cell growth); assay type: cell-based; conditions: for Endothelial cell assay reading, samples 1-5: raw reading per sample
Protocol: The assays were carried out according to the procedures of Connally, et al. (1986) Anal. Biochem. 152:136-4 with modifications (Liang and Wong (1999) ANGIOGENESIS: FROM THE MOLECULAR TO INTEGRATIVE PHARMACOLOGY edited by Maradoudakis, Kluwer Academic/Plenum. Publishers, New York).

In the case of `Cc1cc2c(C(C)C)c(O)c(O)c(C=O)c2c(O)c1-c1c(C)cc2c(C(C)C)c(O)c(O)c(C=O)c2c1O` [(+) gossypol], the “organs in which the enantiomer concentrates” value [1] is reported as “concentrates in the kidneys”.
In the case of `Cc1cc2c(C(C)C)c(O)c(O)c(C=O)c2c(O)c1-c1c(C)cc2c(C(C)C)c(O)c(O)c(C=O)c2c1O` [(−) gossypol], the “organs in which the enantiomer concentrates” value [1] is reported as “concentrates in the major organs such as the heart, spleen and muscles”.
With `Cc1cc2c(C(C)C)c(O)c(O)c(C=O)c2c(O)c1-c1c(C)cc2c(C(C)C)c(O)c(O)c(C=O)c2c1O` [Gossypol Acetate, gossypol acetate] the Inhibition (endothelial cells; Gossypol Acetate, first column (concentration not given)) was 46.2%, the Inhibition (endothelial cells; Gossypol Acetate, second column (concentration not given)) was 21.3% and the “Endothelial cell assay reading, samples 1-5” value (endothelial cells; Gossypol Acetate) was 0.3289 and 0.3165 and 0.3065 and 0.3035 and 0.3269.
With `Cc1cc2c(C(C)C)c(O)c(O)c(C=O)c2c(O)c1-c1c(C)cc2c(C(C)C)c(O)c(O)c(C=O)c2c1O` [Gossypol] the “Endothelial cell assay reading, samples 1-5” value (endothelial cells; Concentration of Gossypol: 25 mM) was 0.0112 and 0.0078 and 0.0057 and 0.0068 and 0.0076 and the inhibition at 25000 µM (endothelial cells; Endothelial cell, Concentration of Gossypol: 25 mM) was 97.6%.
